Source: US20220403337A1, “CELL REPROGRAMMING METHOD” (priority 2019, published 2022)

Legend:
Type in all cases: cell-based
[1] = tested on: Normal human skin fibroblasts (adult); experiment: Reprogramming of human skin fibroblasts: change in form, spheroid formation, alkaline phosphatase stain
Experimental: (§1) Normal human skin fibroblasts (adult) (Takara Bio) were seeded to a spheroid plate, and after 24 to 48 hours, medium exchange was performed on a D-MEM (Low Glucose) medium to which 2-mercaptoethanol diluted by 1/100000 (142 μM) was added. Then, after three to four days, medium exchange was performed again on the same D-MEM medium.
Then, after three or four days, the medium exchange was performed again on the same medium.
The alkaline phosphatase reaction of the cells finally obtained by the above-described culture was examined. The stain of alkaline phosphatase was performed in accordance with the operating manual attached to the kit using Alkaline Phosphatase Live Stain (Invitrogen). Specifically, the cells were cultured for 30 minutes in a medium in which a staining fluid (AP Live Stain) attached to the kit diluted by 500 times was added in the D-MEM. Afterwards, the medium was exchanged and cleaning was performed for five minutes x two times.
(§2) The processes similar to those of the above-described items 1 and 2 were performed to examine the concentration of 2-mercaptoethanol. Specifically, except that the concentration of 2-mercaptoethanol was set to 0.142 μM, 1.42 μM, 14.2 μM, 142 μM, 1.42 mM, 14.2 mM, and 142 mM, the operations same as those in the items 1 and 2 were performed.
Similarly to the item 1, after performing the culture in the D-MEM medium containing the 2-mercaptoethanol (142 μM), LIF (wako, used by 1:1000), ACTH (wako, 10 μmol/L), bFGF (wako, 0.34 nmol/L), and AR-A014418 (Merck, 3 μM) were added in this medium and further the cells were cultured for one week. As a result, both of spheroid formation of the cells and the alkaline phosphatase stain were observed.
In the item 1, when (i) only the LIF, (ii) only the ACTH, or (iii) only the LIF and the ACTH were added to the ADSC-4 medium for culture, spheroid formation of the cells and the alkaline phosphatase stain were observed under any conditions.

[2] = tested on: normal human skin fibroblast (adult); experiment: Effect by CCL2 added to LIF on reprogramming (cell form)
Experimental: The CCL2 was added to the LIF and an influence given to reprogramming was verified. In accordance with Working Example 1, while medium exchange was performed on a normal human skin fibroblast (adult) (the Takara Bio) in a D-MEM medium containing 2-mercaptoethanol (142 μM) for three to four days, culture was performed for seven days. Next, culture was performed for additional seven days in a medium in which (i) only LIF, (ii) LIF+CCL2 (10 ng/mL), or (iii) LIF+CCL2 (100 ng/mL) were added to an ADSC-4 medium. Note that the LIF was used by 1:1000.

[3] = tested on: Normal human skin fibroblasts (adult); experiment: Extinction of cells at high 2-mercaptoethanol concentration; details: D-MEM medium
Experimental: as §1, §2

[4] = tested on: Nanog, Klf4, Oct4, and Sox2; experiment: PCR for expression of undifferentiated markers; details: human skin fibroblasts processed with 2-mercaptoethanol and reprogrammed (FIG. 4 lane 3)
Experimental: Whether gene expression had been generated was examined on Nanog, Klf4, Oct4, and Sox2 as the undifferentiated markers. The RNA was collected from the cells using a RNeasy Mini Kit (QIAGEN). PCR was performed on the above-described various kinds of undifferentiated markers using the method described in Cell. 2007 Nov 30; 131(5): 861-72.

[5] = after 2-mercaptoethanol (142 μM) step, only the named factor(s) added to ADSC-4 medium
[6] = culture only in D-MEM containing 2-mercaptoethanol (142 μM), no step (b)

ACTH: adrenocorticotropic hormone (wako, 10 μmol/L) (SYSMEHFRWGKPVGKKRRPVKVYPNGAEDESAEAFPLEF; Corticotropin; UniProt P01189 138-176, looked up)
spheroid formation of the cells and alkaline phosphatase stain [1, 5]: observed

LIF: leukemia inhibiting factor, OCT3/4 transcription stimulating factor (wako, used by 1:1000)
alkaline phosphatase stain (strength) [1, 5]: especially observed strongly
spheroid formation of the cells and alkaline phosphatase stain [1, 5]: observed
change in form of the cells ([2]; (i) only LIF 1:1000 in ADSC-4, seven days, after 2-mercaptoethanol (142 μM) seven days): confirmed

CCL2: chemokine (C-C motif) ligand 2, OCT3/4 transcription stimulating factor
cell aggregation on addition of CCL2 to LIF ([2]; contours between cells clarified, divergence of cell adhesion recognized (FIG. 13D)): remarkable

OCCS [2-mercaptoethanol]
change in form of the cells ([1]; 142 μM in D-MEM (Low Glucose), cultured for one week): the change in form of the cells was confirmed
spheroid formation of the cells and alkaline phosphatase stain ([1]; 142 μM in D-MEM, then LIF, ACTH, bFGF, AR-A014418 added in this same medium, one further week): observed
spheroid formation ([1]; 142 μM one week, then one week in ADSC-4 with LIF 1:1000, ACTH 10 μmol/L, bFGF 0.34 nmol/L, AR-A014418 3 μM): forming spheroids
alkaline phosphatase stain (AP Live Stain, fluorescence microscope) ([1]; 142 μM one week, then one week in ADSC-4 with LIF, ACTH, bFGF, AR-A014418): the stain was observed
spheroid formation of the cells and alkaline phosphatase stain ([1]; 2-mercaptoethanol at 0.142 μM to 1.42 mM in step (a), then ADSC-4 with LIF, ACTH, bFGF, AR-A014418): observed
alkaline phosphatase stain ([1]; 2-mercaptoethanol at 14.2 μM to 1.42 mM in step (a), then ADSC-4 with LIF, ACTH, bFGF, AR-A014418): especially strongly observed
alkaline phosphatase stain [1, 6]: weak
spheroid formation of the cells [1, 6]: observed
2-mercaptoethanol concentration at which extinction of the cells was observed [3]: ≥ 14.2 mM
expression of undifferentiated markers Nanog, Klf4, Oct4, and Sox2 (PCR bands around targeted sizes) [4]: bands were able to be confirmed
